# Measurements from patent US20150141435A1, “2-PYRIDONE ANTIMICROBIAL COMPOSITIONS” (Emergent BioSolutions, priority 2010, published 2015).
# Structures can show the parent of a compound that is named as a salt.
# Key:
# Assay type in all cases: cell-based
# [1] = system: S. aureus ATCC 43300 (MRSA, FQ-S); assay: MIC, CLSI broth microdilution (Table 1); settings: Staphylococcus aureus; Gram positive; MHB, 37° C., 16-20 hours; read-out: MIC S. aureus ATCC 43300 (MRSA, FQ-S)
# S. aureus ATCC 25923 = assay: MIC, CLSI broth microdilution (Table 1); settings: Staphylococcus aureus, ATCC25923; Gram positive; MHB, 37° C., 16-20 hours; read-out: MIC S. aureus ATCC 25923
# E. faecalis ATCC 29212 = assay: MIC, CLSI broth microdilution (Table 1); settings: Enterococcus faecalis, ATCC29212; Gram positive; MHB, 37° C., 16-20 hours; read-out: MIC E. faecalis ATCC 29212
# P. aeruginosa ATCC 27853 = assay: MIC, CLSI broth microdilution (Table 2); settings: Pseudomonas aeruginosa, ATCC27853; Gram negative; MHB, 37° C., 16-20 hours; read-out: MIC P. aeruginosa ATCC 27853
# E. faecium ATCC 19434 = assay: MIC, CLSI broth microdilution (Table 1); settings: Enterococcus faecium, ATCC19434; Gram positive; MHB, 37° C., 16-20 hours; read-out: MIC E. faecium ATCC 19434
# S. pneumonia ATCC 49619 = assay: MIC, CLSI broth microdilution (Table 1); settings: Streptococcus pneumoniae, ATCC49619; Gram positive; MHB, 37° C., 16-20 hours; read-out: MIC S. pneumonia ATCC 49619
# K. pneumoniae ATCC 33495 = assay: MIC, CLSI broth microdilution (Table 2); settings: Klebsiella pneumoniae, ATCC33495; Gram negative; MHB, 37° C., 16-20 hours; read-out: MIC K. pneumoniae ATCC 33495
# [2] = system: S. aureus BAA-1720 (MRSA, FQ-R); assay: MIC, CLSI broth microdilution (Table 1); settings: Staphylococcus aureus; Gram positive; MHB, 37° C., 16-20 hours; read-out: MIC S. aureus BAA-1720 (MRSA, FQ-R)
# E. coli ATCC 25922 = assay: MIC, CLSI broth microdilution (Table 2); settings: Escherichia coli, ATCC25922; Gram negative; MHB, 37° C., 16-20 hours; read-out: MIC E. coli ATCC 25922
# H. influenzae ATCC 49247 = assay: MIC, CLSI broth microdilution (Table 2); settings: Haemophilus influenzae, ATCC49247; Gram negative; MHB, 37° C., 16-20 hours; read-out: MIC H. influenzae ATCC 49247
# A. baumannii ATCC 19606 = assay: MIC, CLSI broth microdilution (Table 2); settings: Acinetobacter baumannii, ATCC19606; Gram negative; MHB, 37° C., 16-20 hours; read-out: MIC A. baumannii B. ATCC 19606
# [3] = system: S. maltophilia ATCC 17677; assay: MIC, CLSI broth microdilution (Table 2); settings: Stenotrophomonas maltophilia, ATCC17677; Gram negative; MHB, 37° C., 16-20 hours; read-out: MIC S. maltophilia ATCC 17677
Compound,MIC [1],MIC (S. aureus ATCC 25923),MIC (E. faecalis ATCC 29212),MIC (P. aeruginosa ATCC 27853),MIC (E. faecium ATCC 19434),MIC (S. pneumonia ATCC 49619),MIC (K. pneumoniae ATCC 33495),MIC [2],MIC (E. coli ATCC 25922),MIC (H. influenzae ATCC 49247),MIC (A. baumannii ATCC 19606),MIC [3]
"Cc1c(N2CC[C@H](N)C2)c(F)cn2c(=O)c(C(=O)O)cc(C3CC3)c12 [Example 26 K salt, 8-[(3S)-3-aminopyrrolidin-1-yl]-1-cyclopropyl-7-fluoro-9-methyl-4-oxo-quinolizine-3-carboxylic acid]",0.032 µg/mL,0.032 µg/mL,0.125 µg/mL,0.125 µg/mL,1 µg/mL,0.064 µg/mL,0.016 µg/mL,1 µg/mL,≤ 0.004 µg/mL,≤ 0.004 µg/mL,0.064 µg/mL,0.064 µg/mL
"Cc1cc(-c2ccn3c(=O)c(C(=O)O)cc(C4CC4)c3c2C)ccc1N [Example 19 K salt, 8-(4-amino-3-methyl-phenyl)-1-cyclopropyl-9-methyl-4-oxo-4H-quinolizine-3-carboxylic acid]",0.016 µg/mL,0.016 µg/mL,0.032 µg/mL,2 µg/mL,1 µg/mL,0.064 to 0.125 µg/mL,0.25 µg/mL,0.25 µg/mL,0.064 to 0.125 µg/mL,0.008 µg/mL,0.125 to 0.25 µg/mL,0.25 µg/mL
"Cc1c(-c2ccc(C#N)c(F)c2)ccn2c(=O)c(C(=O)O)cc(C3CC3)c12 [Example 40 K salt, 8-(4-cyano-3-fluoro-phenyl)-1-cyclopropyl-9-methyl-4-oxo-4H-quinolizine-3-carboxylic acid]",0.016 µg/mL,0.016 µg/mL,0.064 µg/mL,> 8 µg/mL,2 µg/mL,0.125 µg/mL,0.5 to 1 µg/mL,0.5 to 1 µg/mL,0.125 to 0.25 µg/mL,0.016 µg/mL,0.25 µg/mL,0.25 µg/mL
"Cc1c(-c2ccc(NS(C)(=O)=O)cc2)ccn2c(=O)c(C(=O)O)cc(C3CC3)c12 [Example 14 K salt, 1-cyclopropyl-9-methyl-8-(4-(methylsulfonamido)-phenyl)-4-oxo-4H-quinolizine-3-carboxylic acid]",0.016 µg/mL,0.016 µg/mL,0.064 µg/mL,> 8 µg/mL,8 µg/mL,0.125 µg/mL,1 µg/mL,0.5 µg/mL,0.25 µg/mL,0.016 µg/mL,0.5 to 1 µg/mL,1 µg/mL
"Cc1c(-c2ccc(C(=O)O)cc2)ccn2c(=O)c(C(=O)O)cc(C3CC3)c12 [Example 37 K salt, 8-(4-carboxy-phenyl)-1-cyclopropyl-9-methyl-4-oxo-4H-quinolizine-3-carboxylic acid]",0.125 µg/mL,2 µg/mL,0.5 µg/mL,> 8 µg/mL,> 8 µg/mL,1 µg/mL,> 8 µg/mL,8 µg/mL,> 8 µg/mL,0.064 µg/mL,> 8 µg/mL,> 8 µg/mL
"Cc1c(-c2ccc(N)cc2)ccn2c(=O)c(C(=O)O)cc(C3CC3)c12 [Example 18 K salt, 8-(4-amino-phenyl)-1-cyclopropyl-9-methyl-4-oxo-4H-quinolizine-3-carboxylic acid]",0.008 µg/mL,0.008 µg/mL,0.032 µg/mL,1 µg/mL,0.25 µg/mL,0.064 µg/mL,0.064 to 0.25 µg/mL,0.25 µg/mL,0.032 µg/mL,0.008 µg/mL,0.064 µg/mL,0.125 µg/mL
"CC(=O)Nc1ccc(-c2ccn3c(=O)c(C(=O)O)cc(C4CC4)c3c2C)cc1 [Example 13 K salt, 8-(4-acetamido-phenyl)-1-cyclopropyl-9-methyl-4-oxo-4H-quinolizine-3-carboxylic acid]",0.008 µg/mL,0.008 to 0.016 µg/mL,0.016 µg/mL,8 µg/mL,0.5 µg/mL,0.032 µg/mL,0.5 µg/mL,0.25 µg/mL,0.125 µg/mL,0.016 µg/mL,0.5 µg/mL,0.5 µg/mL
"Cc1c(-c2ccc(N)c(Cl)c2)ccn2c(=O)c(C(=O)O)cc(C3CC3)c12 [Example 11 K salt, 8-(4-amino-3-chloro-phenyl)-1-cyclopropyl-9-methyl-4-oxo-4H-quinolizine-3-carboxylic acid]",≤ 0.004 µg/mL,≤ 0.004 µg/mL,0.016 µg/mL,2 µg/mL,0.25 µg/mL,0.032 µg/mL,0.125 µg/mL,0.125 µg/mL,0.064 µg/mL,≤ 0.004 µg/mL,0.064 µg/mL,0.125 µg/mL

# Second part, the molecule after the results:
MIC [1],MIC (S. aureus ATCC 25923),MIC (E. faecalis ATCC 29212),MIC (P. aeruginosa ATCC 27853),MIC (E. faecium ATCC 19434),MIC (S. pneumonia ATCC 49619),MIC (K. pneumoniae ATCC 33495),MIC [2],MIC (E. coli ATCC 25922),MIC (H. influenzae ATCC 49247),MIC (A. baumannii ATCC 19606),MIC [3],Compound
0.016 µg/mL,0.016 µg/mL,0.064 µg/mL,2 to 4 µg/mL,1 µg/mL,0.125 µg/mL,0.125 µg/mL,1 µg/mL,0.064 µg/mL,≤ 0.004 µg/mL,0.125 to 0.25 µg/mL,0.25 µg/mL,"Cc1c(-c2cccnc2)ccn2c(=O)c(C(=O)O)cc(C3CC3)c12 [Example 17 K salt, 1-cyclopropyl-9-methyl-4-oxo-8-(pyridin-3-yl)-4H-quinolizine-3-carboxylic acid]"
0.032 µg/mL,0.016 to 0.032 µg/mL,0.125 µg/mL,4 µg/mL,4 µg/mL,0.5 µg/mL,0.125 µg/mL,2 µg/mL,0.064 to 0.125 µg/mL,0.008 µg/mL,0.25 µg/mL,0.25 µg/mL,"Cc1c(-c2cc[nH]c2)ccn2c(=O)c(C(=O)O)cc(C3CC3)c12 [Example 43 K salt, 1-cyclopropyl-9-methyl-4-oxo-8-(1H-pyrrol-3-yl)-4H-quinolizine-3-carboxylic acid]"
0.5 µg/mL,1 µg/mL,4 µg/mL,2 µg/mL,> 8 µg/mL,2 µg/mL,0.25 µg/mL,8 µg/mL,0.064 to 0.125 µg/mL,0.125 µg/mL,2 µg/mL,2 µg/mL,"Cc1c(N2CC[C@H](N)C2)ccn2c(=O)c(C(=O)O)cc(C3CC3)c12 [Example 27 K salt, 8-[(3S)-3-aminopyrrolidin-1-yl]-1-cyclopropyl-9-methyl-4-oxo-quinolizine-3-carboxylic acid]"
≤ 0.004 µg/mL,≤ 0.004 µg/mL,0.008 to 0.016 µg/mL,> 8 µg/mL,> 8 µg/mL,0.016 µg/mL,1 to 2 µg/mL,0.064 µg/mL,0.064 to 0.125 µg/mL,≤ 0.004 µg/mL,0.125 µg/mL,0.25 µg/mL,"Cc1c(-c2cc(F)c(N)cc2F)c(F)cn2c(=O)c(C(=O)O)cc(C3CC3)c12 [Example 38 K salt, 8-(4-amino-2,5-difluoro-phenyl)-1-cyclopropyl-7-fluoro-9-methyl-4-oxo-4H-quinolizine-3-carboxylic acid]"
0.064 µg/mL,0.064 µg/mL,0.125 µg/mL,> 8 µg/mL,8 µg/mL,0.25 µg/mL,1 µg/mL,1 µg/mL,0.5 µg/mL,0.064 µg/mL,1 µg/mL,1 µg/mL,"Cc1c(-c2ccc(N(C)C)cc2)ccn2c(=O)c(C(=O)O)cc(C3CC3)c12 [Example 25 K salt, 1-cyclopropyl-8-(4-(dimethylamino)-phenyl)-9-methyl-4-oxo-4H-quinolizine-3-carboxylic acid]"
0.016 µg/mL,0.016 µg/mL,0.064 µg/mL,2 µg/mL,0.5 µg/mL,0.25 µg/mL,0.25 µg/mL,0.5 µg/mL,0.125 µg/mL,0.008 µg/mL,0.125 to 0.25 µg/mL,0.25 µg/mL,"Cc1c(-c2ccc(F)cc2)ccn2c(=O)c(C(=O)O)cc(C3CC3)c12 [Example 44 K salt, 1-cyclopropyl-8-(4-fluoro-phenyl)-9-methyl-4-oxo-4H-quinolizine-3-carboxylic acid]"
